Among the data in PubChem BioAssay AID651717 (Broad Institute, 2012) are AC40 values, retold here.

Molecules are shown by their SMILES.

The test has as its system mESC Bmi1-luciferase reporter, firefly/renilla ratio, 24 h. Description: compounds raising Bmi1 reporter signal – mouse embryonic stem cells, luciferase, cherry-pick, esBAF inhibitor project, dose response (AID 651717).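 Also: luciferase knocked into Bmi1 locus with EF-1a renilla as cell number control; rising ratio signals esBAF inhibition which derepresses Bmi1.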
Consider `O=C(CC(NC(=O)OCc1ccccc1)c1nn[nH]n1)OCc1ccccc1` (stereo unspecified), for which the AC40 is 2.6 µM.
The same measure for `C=CCNc1oc(-c2ccc(OC)cc2)nc1C#N`: 3.54 µM; for `O=C(c1ccccc1)c1ccc2ccccc2c1`: 3.04 µM; for `CCC(=O)c1ccc(N2CCCCCC2)c(F)c1`: 4.92 µM.
For the compound `Cc1noc(C)c1C(=O)Nc1nc2ccccc2s1`, the AC40 was 3.83 µM.
The same measure for `COc1cccc(NC(=O)c2ccccc2Br)c1`: 4.25 µM; for `COc1ccc(-c2cc(C(=O)Nc3cccnc3)no2)cc1OC`: 4.87 µM; for `COC(=O)/C(=C1\Oc2ccc(C(C)(C)C)cc2S1)C(F)(F)F`: 1.45 µM.
The figure for `COc1cccc(NC(=O)c2ccc3c(c2)CCN3S(C)(=O)=O)c1` is 7.43 µM.
For the compound `CCC(C)NC(=O)c1cc(CC(C)C)on1` (stereo unspecified), the AC40 is 6.83 µM.
The figure for `Cc1ccc2c(CN(C)Cc3ccccc3)cc(=O)oc2c1` is 1.82 µM; for `COC(=O)c1ccc2c(C)c(C3(O)CCCCC3)[nH]c2c1` it is 7.47 µM.
Consider `COc1cc(C)ccc1OCc1cc(C(=O)N2CCN(C3CCCCC3)CC2)no1`, for which the AC40 was 5.3 µM.
The figure for `O=C(NCc1ccc2c(c1)OCO2)Nc1cccc(Cl)c1` is 7.4 µM.
The figure for `Cc1ccc(Nc2nc3c(c(=O)[nH]2)CCCC3)cc1` is 8.9 µM.
The same measure for `CCOC(=O)N1CCN(C(=O)CSCC(=O)Nc2nc(-c3ccc4c(c3)OCO4)cs2)CC1`: 12.1 µM; for `COc1ccc2[nH]cc(C(=O)CNc3nc(C)cs3)c2c1`: 10.3 µM; for `C=CCn1c(-c2ccc(N)cc2)nc2ccccc21`: 0.806 µM.
Take `COc1ccc(-c2coc3cc(OC(C)=O)ccc3c2=S)cc1`: the AC40 was 0.794 µM.
With `Clc1ccc(-c2nc3ccc(Cl)cn3c2Cc2ccsc2)cc1`, the AC40 was 9.87 µM.
The same measure for `COc1ccc(-n2nc(C(=O)NCC(=O)N3CCN(c4ccccc4)CC3)c3ccccc3c2=O)c(OC)c1`: 3.37 µM; for `Fc1ccc(Nc2nnc(-c3ccncc3)s2)cc1Cl`: 4.42 µM.
On to `Cc1cccc(OCc2nc3ccccc3n2C)c1`, for which the AC40 is 6.7 µM.
Take `CC(c1ccccc1)c1nnc(NC(=O)Nc2ccccc2F)s1` (stereo unspecified): the AC40 was 6.51 µM.
The same measure for `CC1CCc2sc(C(=O)NC3CCCCC3)cc2C1` (stereo unspecified): 1.08 µM; for `Cc1csc(SCCN2C(=O)c3ccccc3C2=O)n1`: 3.17 µM.
The figure for `C/C(=N\OC(=O)NC(C)C)c1sc(-c2ccccc2)nc1C` is 7.63 µM; for `COc1ccc(/C=N/NC(=O)Cc2cccs2)cc1` it is 8.51 µM.
The figure for `Cc1ccc(NC(=O)c2ccc3c(=O)n4c(nc3c2)CCC4)cc1F` is 0.945 µM; for `O=C(NOCc1ccccc1)OCc1ccccc1` it is 4.39 µM; for `COc1ccc(C2=Nc3ccccc3NC(=O)C2N(C(=O)c2cc3ccccc3[nH]2)c2ccccc2)cc1` (stereo unspecified) it is 1.44 µM.
For `Fc1ccc(CSc2ccc(-c3cccs3)nn2)cc1`, the AC40 is 5.03 µM.
The figure for `Oc1ccc(/C=N/Nc2nc(-c3cccnc3)nc3ccccc23)c(O)c1` is 11.2 µM; for `CC1CCC(NC(=O)c2cc3ccccc3cc2O)CC1` (stereo unspecified) it is 0.967 µM.
For `CO[C@@H]1CN(C)C(=O)c2cc(NC(=O)Nc3ccc4c(c3)OCO4)ccc2OC[C@H](C)NC[C@@H]1C`, the AC40 is 6.97 µM.
Consider `CO[C@@H]1CN(C)C(=O)c2ccc(NC(=O)Nc3ccc4c(c3)OCO4)cc2OC[C@H](C)NC[C@H]1C`, for which the AC40 is 6.56 µM.
On to `O=C(c1cc(COc2cccc(C(F)(F)F)c2)on1)N1CCCC1`, for which the AC40 is 17.5 µM.
The figure for `COc1ccc(-c2cnc(C(O)c3ccccc3)[nH]2)cc1` (stereo unspecified) is 1.15 µM.
For the compound `CC(C)c1ccc(NC(=O)c2cccnc2)cc1`, the AC40 was 2.6 µM.
For `O=c1/c(=C\c2cccnc2)sc2nc3ccccc3n12`, the AC40 was 9.85 µM.
Take `Cc1ccc(Cn2cc(-c3ccccc3)nn2)cc1`: the AC40 is 7.62 µM.
The same measure for `Cc1ccc(NC(=O)C(=O)Nc2ccc(C)cn2)nc1`: 0.497 µM; for `CNC(=O)c1ccc(-c2ccccc2)s1`: 5.62 µM; for `O=C(CNC(=O)c1ccccc1F)Nc1ccc2c(c1)OCO2`: 3.55 µM.
As for `CCCN1C(=O)c2ccc(C(=O)Nc3ccc4c(c3)OCO4)cc2C1=O`, the AC40 is 9.64 µM.
The same measure for `CC1(C)Cc2c(c(N3CCCC3)nc3sc(C(=O)Nc4ccccc4)c(N)c23)CO1`: 6.24 µM.
The same measure for `COc1cc(CNc2ccc(N3CCN(C(C)=O)CC3)cc2)ccc1OCc1ccc(F)cc1`: 3.93 µM; for `O=C(Nc1nc2ccc(Cl)cc2s1)c1cccc(N2C(=O)CCC2=O)c1`: 3.25 µM; for `COc1ccc(Cl)c(-c2cc(C(=O)Nc3ccc(F)cc3)[nH]n2)c1`: 2.11 µM.
`COc1cc2c(cc1NC(=O)C(C)OC(=O)/C=C/c1ccc(OC(F)F)cc1)oc1ccccc12` (stereo unspecified): the AC40 is 3.91 µM.
The same measure for `O=C(N/N=C/c1cnc2ccccc2n1)c1cccc(F)c1`: 4.89 µM.
The same measure for `N/C(=N\OC(=O)C1CCCCC1)c1ccc(Cl)cc1`: 6.24 µM; for `Cc1ccnc(NCc2cc(C)ccc2O)c1`: 12.8 µM.
With `COc1ccccc1NC(=O)Nc1nc(CC(=O)Nc2ccc(N(C)C)cc2)cs1`, the AC40 is 8.78 µM.
The same measure for `O=C(Nc1cccc2ccccc12)OCc1ccccc1`: 3.96 µM.
The figure for `COc1cc(/C=C/c2nc3ccccc3c(=O)[nH]2)ccc1OC(F)F` is 1.6 µM.
The figure for `N/C(=N\OC(=O)c1cccnc1)c1ccccc1Cl` is 23.6 µM; for `CCN(CC)S(=O)(=O)c1cccc(-c2nc3n(n2)Cc2ccccc2-3)c1` it is 21.7 µM; for `C(=N\N1CCN(c2ccccc2)CC1)/c1ccccc1` it is 4.79 µM.
As to `COc1ccc(-c2csc(C(O)c3ccccc3)n2)cc1` (stereo unspecified), the AC40 was 5.06 µM.
For `Cc1ccc(NC(=O)c2ccc3c(c2)CCN3S(C)(=O)=O)cc1`, the AC40 is 10.5 µM.
For the compound `COc1ccc(NC(=O)c2cc(F)cc(F)c2)cc1Cl`, the AC40 is 4.77 µM.
As for `Cc1ccc(C)c(NC(=O)c2cc(-c3ccccc3O)n[nH]2)c1`, the AC40 is 11.5 µM.
The figure for `C(=NN=Cc1c[nH]c2ccccc12)c1c[nH]c2ccccc12` is 3.9 µM; for `O=C(NN=Cc1ccc2c(c1)CCC2)c1ccccc1O` it is 2.45 µM.
The same measure for `O=C(Nc1cccnc1Cl)c1cc(-c2ccccc2O)on1`: 1.09 µM; for `COc1ccc(C)cc1NCc1cc(=O)oc2cc(-c3ccccc3)c(O)cc12`: 32.4 µM; for `O=C1CCN(Cc2ccccc2)CCN1CCSc1ccccc1`: 3.08 µM.
The figure for `O=C(N/N=C/c1cccs1)c1cccc2cc[nH]c12` is 6.06 µM.
For the compound `CCN(CC)S(=O)(=O)c1ccc2c(c1)nc(-c1ccccn1)n2C`, the AC40 is 11.1 µM.
`CCC(=O)Nc1nc(-c2ccc3c(c2)CC(C)N3S(C)(=O)=O)cs1` (stereo unspecified): the AC40 is 7.5 µM.
The same measure for `COC(=O)c1c(-c2ccc(Br)cc2)noc1N`: 14.7 µM; for `CC(=O)O/N=C(\N)c1ccc(-c2csnn2)cc1`: 29.5 µM; for `CCOC(=O)C1=C(CSc2nc(-c3ccccc3)ccc2C#N)OC(N)=C(C#N)C1c1cccnc1` (stereo unspecified): 2.89 µM.
As to `CC(=O)c1ccc(NC(=O)CNCc2cccs2)cc1`, the AC40 is 12.3 µM.
Take `CCc1ccccc1NC(=O)c1cc(-c2cccc(O)c2)on1`: the AC40 was 5.03 µM.
On to `COc1cccc(-c2nc(-c3ccc(NC(=O)c4cccs4)cc3)no2)c1`, for which the AC40 is 4.26 µM.
On to `CC(C)C1CCN(C(=O)C2CCC(=O)N(C3CCCCCC3)C2)CC1` (stereo unspecified), for which the AC40 is 9.83 µM.
The figure for `Cc1cc2ncn(C(=O)N3CCC(C)CC3)c2cc1C` is 7.84 µM; for `CCCCN(C(=O)CSc1nnc(Nc2ccc(C)c(C)c2)s1)c1c(N)n(Cc2ccccc2)c(=O)[nH]c1=O` it is 12.4 µM; for `COc1cccc2cc(C(=O)N3CCc4ccccc4C3)c(=O)oc12` it is 26.9 µM.
The figure for `CO[C@@H]1CN(C)C(=O)c2ccc(NC(=O)Nc3ccc4c(c3)OCO4)cc2OC[C@@H](C)NC[C@@H]1C` is 2.93 µM; for `Cn1c2ccccc2c(=O)c2cc(C#Cc3ccsc3)ccc21` it is 1.08 µM.
With `COc1ccc(C(=O)NCc2ccc(-c3nc4ccccc4s3)cc2)cc1`, the AC40 was 6.13 µM.
The same measure for `CC(O)(c1ccccc1)c1nc(-c2cccc(C(=O)O)c2)cs1` (stereo unspecified): 4.13 µM; for `COc1ccc(-c2csc(Nc3cc(C)ccn3)n2)cc1C`: 1.91 µM; for `COc1cc2ccccc2cc1C(=O)Nc1ccncc1`: 5.2 µM.
On to `COc1ccc(OCc2cc(C(=O)NC(C)c3nc(C)cs3)no2)c(Cl)c1` (stereo unspecified), for which the AC40 was 10.4 µM.
Take `Cc1ccc(N(Cc2ccccc2)C(=O)c2cccc(S(=O)(=O)N3CC(C)OC(C)C3)c2)cc1` (stereo unspecified): the AC40 was 29.6 µM.
The figure for `Cc1ccc(NC(=O)O/N=C/c2ccc(N(C)C)cc2)cc1` is 16.6 µM.
The same measure for `c1ccc(CCc2nc(-c3cccnc3)no2)cc1`: 1.64 µM; for `O=C(c1cc(-c2ccc(Cl)cc2)on1)N1CCN(c2ccccc2)CC1`: 6.4 µM.
For `C#CCn1cccc(C(=O)Nc2ccc(OC)cc2)c1=O`, the AC40 is 10.7 µM.
On to `COc1ccc(Nc2nc(C)c(C(C)=O)s2)cc1`, for which the AC40 is 4.13 µM.
Take `CCNC(=O)O/N=C(\C)c1sc(-c2ccccc2)nc1C`: the AC40 is 3.29 µM.
The figure for `CC(=O)Nc1ccc2c(c1)Cc1c(F)cccc1-2` is 0.977 µM; for `O=C(COC(=O)c1cc2ccccc2oc1=O)Nc1cccc(S(=O)(=O)N2CCCCCC2)c1` it is 12.7 µM.
The same measure for `Cc1csc(NC(=O)Cc2c[nH]c3ccccc23)n1`: 10.2 µM; for `CCc1sc(C(=O)N2CCN(CC(=O)Nc3cccc(F)c3)CC2)cc1C`: 3.04 µM; for `CNc1cncc(-c2cccc(OC)c2F)n1`: 1.24 µM.
As to `COc1ccc(OCc2cc(C(=O)N(C)C(C)c3ccon3)no2)c(Cl)c1` (stereo unspecified), the AC40 is 23.4 µM.
On to `Oc1cccc(/C=N/N2CCCCC2)c1O`, for which the AC40 is 3.47 µM.
For `COc1cc2ccccc2cc1C(=O)Nc1ccc(Br)cn1`, the AC40 is 0.489 µM.
The same measure for `C=CCNc1nc(NCc2cccc(OC)c2)c2sc(-c3ccccc3)cc2n1`: 1.86 µM; for `ON=C(CCc1ccccc1)c1ccccc1`: 0.977 µM.
The figure for `CCC(=O)n1nc(-c2ccc(Cl)cc2)nc1SC` is 3.71 µM.
